# Measured values reported in US20250049787A1, “TREATMENT FOR ACUTE MYELOID LEUKEMIA OR LYMPHOMA” (UNIVERSITY HEALTH NETWORK, priority 2021, published 2025).
# pEC50, pIC50: −log10 of the molar value. Structures can show the parent of a compound that is named as a salt.
# Experiments:
# [1] = target: FLT3-ITD (internal tandem duplication) (Homo sapiens, UniProt P36888); assay: Radiometric HotSpot kinase assay, FLT3-ITD; format: biochemical; details: ATP 30 μM; peptide substrate 20 μM
# Description: Kinase IC50 values were determined by Reaction Biology Corp. (Malvern, PA, USA) in the Radiometric HotSpot™ Assay using recombinantly expressed kinase enzymes. Compound (I) was tested in a 10-dose IC50 curve in duplicate. Enzymes were tested at the Km [ATP] for each enzyme using the Reaction Biology binning structure. Kinase reactions were initiated by the addition of protein or peptide substrate and [γ-^33P]-adenosine triphosphate (ATP). Phosphorylated substrates were captured by spotting of the reaction mix on filter membranes, and enzymatic activity was quantified by liquid scintillation counting. Substrates and ATP concentrations are as follows: • FLT3: Peptide substrate, [EAIYAAPFAKKK], 5 μM: ATP 50 μM • FLT3-ITD (internal tandem duplication): Peptide substrate, [EAIYAAPFAKKK], 20 μM: ATP, 30 μM • FLT3 (D835Y): Peptide substrate, [EAIYAAPFAKKK], 5 μM: ATP 20 μM • TAK1: Casein, 1 mg/mL: ATP, 20 μM
# MV-4-11 = assay: Growth inhibition, Alamar Blue; format: cell-based; details: Homo sapiens, MV4-11, 72 h; MV-4-11, AML M5; FLT3 ITD, protein expressed; 3 days
# Description: (§1) Cell lines were obtained from American Type Culture Collection (ATCC) and maintained according to the supplier's instructions, and from Dr. Mark Minden (Princess Margaret Cancer Centre, Toronto, Canada). Short tandem repeat (STR) profiling was used to verify authenticity of the cell lines. Peripheral blood from healthy human donors was obtained from the Hematology Malignancy Tissue Bank at the University Health Network. Peripheral blood mononuclear cells (PBMC) were prepared from the blood by density gradient centrifugation using Ficoll-Paque PLUS by manufacturer's instructions (GE Healthcare Life Sciences). […] Compound (I) tartrate was prepared as a 10 mM stock solution in 100% DMSO. The stock solution was diluted with RPMI-1640 (Invitrogen) containing 10% FBS (fetal bovine serum) such that the final concentrations ranged from 300 fM to 300 μM. Aliquots (20 μL) from each concentration were overlaid to 180 μL of pre-seeded cells to achieve final concentrations of 30 fM to 30 μM. After 3 days, cell growth in each well was assessed by Alamar Blue assay reagent (Invitrogen). Raw fluorescence (λEM=590 nm) values were adjusted by subtracting the average of the baseline readings from untreated cells assessed one day after cell seeding. Relative cell growth was calculated by comparing to DMSO-treated cells. The concentrations at which cell growth was inhibited by 50% (growth inhibition IC50) were calculated using GraphPad PRISM software (GraphPad Software Inc.).
# OCI-AML2 = assay: Growth inhibition, Alamar Blue; format: cell-based; details: Homo sapiens, 72 h; OCI-AML2, AML M4; 3 days
# Description: as §1
# MOLM-13 = assay: Growth inhibition, Alamar Blue; format: cell-based; details: Homo sapiens, 72 h; MOLM-13, AML M5; FLT3 ITD + wild-type, protein not expressed; 3 days
# Description: as §1
# PBMC = assay: Growth inhibition, Alamar Blue; format: cell-based; details: 72 h, NORMAL (healthy human donors), 3 days
# Description: as §1
# REH = assay: Growth inhibition, Alamar Blue; format: cell-based; details: Homo sapiens, 72 h, B-ALL, 3 days
# Description: as §1
# KOPN-8 = assay: Growth inhibition, Alamar Blue; format: cell-based; details: Homo sapiens, 72 h; KOPN-8, B-ALL; 3 days
# Description: as §1
# MOLT-4 = assay: Growth inhibition, Alamar Blue; format: cell-based; details: Homo sapiens, 72 h; MOLT-4, T-ALL; 3 days
# Description: as §1
# OCI-LY18 = assay: Growth inhibition, Alamar Blue; format: cell-based; details: Homo sapiens, 72 h; OCI-LY18, NHL, GCB-DLBCL; 3 days
# Description: as §1
# RS4; 11 = assay: Growth inhibition, Alamar Blue; format: cell-based; details: Homo sapiens, 72 h, 11, B-ALL, 3 days
# Description: as §1
# OCI-LY3 = assay: Growth inhibition, Alamar Blue; format: cell-based; details: Homo sapiens, 72 h; OCI-LY3, NHL, ABC-DLBCL; 3 days
# Description: as §1
# [2] = test system: SLP-76 Ser376 phosphorylation; assay: Phospho-SLP-76 (Ser376) sandwich ELISA in anti-CD3 stimulated Jurkat E6.1 cells; format: cell-based; details: Homo sapiens, 3 hours pretreatment, anti-CD3 (OKT3) 5 μg/mL 15 minutes
# Description: Jurkat E6.1 cells were starved overnight in RPMI-1640 medium (Invitrogen) without fetal bovine serum (FBS). Starved cells (2×10^6 per sample in 1 mL) were pretreated with Compound (I) tartrate for 3 hours and then stimulated with 5 μg/mL anti-CD3 antibody (clone OKT3) for 15 minutes. Cells were immediately lysed in cell lysis buffer plus protease and phosphatase inhibitors, and then assayed for SLP-76 Ser376 phosphorylation with the PathScan Phospho-SLP-76 (Ser376) Sandwich ELISA Kit according to the kit instructions (Cell Signaling Technology, Inc.). Duplicate data points for each concentration were collected (Molecular Devices M5). Raw absorbance (A=450 nm) values were background subtracted and then individual values were averaged for each Compound (I) tartrate concentration. The cellular EC50 was determined using a simple one-site dose-response curve fitting model (XLfit4, IDBS).
# FLT3-ITD maturation = FLT3-ITD maturation in MOLM-14 cells; format: cell-based, human; details: MOLM-14 cells (co-express FLT3-ITD and wild-type FLT3); data not shown
# [3] = test system: PARP cleavage (apoptotic cell death); assay: Immunoblot of PARP cleavage in MV-4-11 cells; format: cell-based, human; details: 4 hours
# Description: MV-4-11 cells (FLT3 LOH, FLT3-ITD positive cells) were treated with the indicated concentrations of Compound (I) tartrate for 4 hours at 37° C. and 5% CO2. Lysates were analyzed by immunoblot analysis with antibodies against FLT3 (Cell Signaling Technology, Inc., Cat. #3462), PARP (Cell Signaling Technology, Inc., Cat. #9542) and GAPDH (Millipore, Cat. #MAB374). Protein bands were visualized using a LI-COR Odyssey near infrared imager and representative data are shown. Compound (I) tartrate treatment increases the expression of the mature 160 kDa form of FLT3-ITD in MV-4-11 cells in a dose-dependent manner. Apoptotic cell death as measured by PARP cleavage was induced by Compound (I) tartrate treatment.
smiles,measurement,setting,value
"CN1CCN(c2ccc3nc(-c4c(N)c5ccsc5[nH]c4=O)[nH]c3c2)CC1 [Compound (I) tartrate, 4-amino-5-(6-(4-methylpiperazin-1-yl)-1H-benzo[d]imidazol-2-yl)thieno[2,3-b]pyridin-6(7H)-one]",pIC50,[1],9.89
same,pIC50,MV-4-11,8.43
same,pIC50,OCI-AML2,5.82
same,pIC50,MOLM-13,5.72
same,pIC50,PBMC,4.85
same,pIC50,REH,5.85
same,pIC50,KOPN-8,5.48
same,pIC50,MOLT-4,5.80
same,pIC50,OCI-LY18,7.05
same,pIC50,RS4; 11,5.77
same,pIC50,OCI-LY3,6.62
same,pEC50,[2],7.62
same,FLT3-ITD maturation,FLT3-ITD maturation,increase
same,apoptotic cell death as measured by PARP cleavage,[3],induced
